{"source": "patent US6455583B1", "about": "“Method for treating meibomian gland disease” (The University of Miami, priority 1998, dated 2002)", "key": {"IL-1RA": {"system": "IL-1RA", "test": "IL-1RA release by human corneal epithelial cell cultures", "format": "cell-based", "settings": "24 h, FIG. 7", "method": "Media=negative control; LPS=cultures treated with lipopolysaccharide for 24 h; Doxy=cultures treated with doxycycline (5 μg/ml) for 24 h; CMT 3=cultures treated with chemically modified tetracycline CMT 3 (1 μg/ml) for 24 hr; Doxy+LPS=cultures treated with LPS and doxycycline (5 μg/ml) for 24 h; CMT 3+LPS=cultures treated with LPS and chemically modified tetracycline CMT 3 (1 μg/ml) for 24 hr.\nIL-1RA has an anti-inflammatory effect by competing with the pro-inflammatory forms of IL-1 (IL-1α and IL-1β) for the type 1 receptor. […] Furthermore, the concentration of IL-1RA in corneal epithelial cultures stimulated with LPS and treated with either doxycycline or CMT-3 was greater than cultures exposed to LPS alone (FIG. 7). These findings indicate tetracyclines are anti-inflammatory due to their ability to stimulate IL-1RA release by the human corneal epithelium."}, "[1]": {"system": "patients with meibomian gland disease and delayed tear clearance", "test": "Topical 0.025% doxycycline solution in patients with meibomian gland disease and delayed tear clearance (Example 6)", "format": "in vivo, human", "description": "Tetracyclines and chemically modified tetracyclines for topical administration can be added to buffered and electrolyte balanced aqueous solutions, buffered and electrolyte balanced aqueous solutions with a lubricating polymer, mineral oil or petrolatum-based ointment, other oils, liposomes, cylcodextrins, sustained release polymers or gels in a range from 0.001 to 3% (weight per volume or weight per weight). These preparations can be administered to the preocular tear film or onto the eyelid skin or lid margin 1 to 6 times per day for a period up to the lifetime of the patient. For example, an eye drop solution comprising doxycycline as an active ingredient was prepared by dissolving pharmaceutical grade doxycycline hydrochloride powder in an electrolyte-balanced salt solution (BSS™, Alcon, Ft. Worth, Tex.) to a final concentration of 0.025%.\nThe solution was prepared as described herein."}, "pro-MMP9": {"system": "pro-MMP9", "test": "pro-MMP9 activity in supernatant of human corneal epithelial cultures (gelatin zymogram)", "format": "cell-based", "settings": "doxycycline 5·g/ml for 24 hours, compared to untreated cultures; FIG. 8", "method": "FIG. 8 is a gelatin zymogram of human corneal epithelial cell supernatant: doxycycline treatment and MMP-3 activation. Lane Legend: (1) 92 kDa purified pro-MMP-9 standard (0.1 ng); (2) Corneal epithelial supernatant+50 μg/mL doxycycline; (3)Supernatant+50 μg/mL doxycycline+1.5 ng/μL MMP-3; (4) Supernatant+100 μg/mL doxycycline+1.5 ng/μL MMP-3; (5) Supernatant from cell culture pre-treated with doxycycline; (6) Supernatant from cell culture pre-treated with doxycycline+1.5 ng/μL MMP-3. Exposure of human corneal epithelial cultures to doxycycline (5·g/ml) for 24 hours decreased the level of pro-MMP9 activity in the supernatant by 70% compared to untreated cultures (FIG. 8). MMP-9 is the metalloproteinase responsible for initiating sterile corneal ulceration and it is also capable of cleaving precursor IL-1β into its mature form."}, "[2]": {"system": "patients with ocular rosacea", "test": "Topical oxytetracycline ointment in patients with meibomian gland disease associated with rosacea and delayed tear clearance (Example 5)", "format": "in vivo, human", "set-up": "key to Clinical Response (per patient): Excellent response, complete or almost complete relief of symptoms.; Good response, symptoms moderately, but not completed relieved", "method": "Eleven ( 11) patients with ocular irritation symptoms due to meibomian gland disease associated with rosacea and delayed tear clearance were treated with a commercially available oxytetracycline ointment (Terak, Akorn Pharmaceuticals) as a topical administration to the ocular surface or the eyelids. Seventy-three percent (73%) of these patients had complete resolution of irritation symptoms."}}, "note": "“And” between values parts separate entries of the source, which are not always exact repeats. Equal entries are not always repeated."}
{"molecule": "NC(=O)C1=C(O)C[C@@H]2C[C@@H]3Cc4cccc(O)c4C(=O)C3=C(O)[C@]2(O)C1=O", "note": "[CMT-3]", "values": [{"measurement": "concentration of IL-1RA in LPS-stimulated cultures compared to LPS alone", "setting": "IL-1RA; LPS + doxycycline 5 μg/ml or CMT 3 1 μg/ml", "result": "greater"}, {"measurement": "release of IL-1RA into the media compared to untreated cultures", "setting": "IL-1RA; doxycycline 5 μg/ml or CMT 3 1 μg/ml", "result": "significantly increased"}]}
{"molecule": "C[C@H]1c2cccc(O)c2C(=O)C2=C(O)[C@]3(O)C(=O)C(C(N)=O)=C(O)[C@@H](N(C)C)[C@@H]3[C@@H](O)[C@@H]21", "note": "[doxycycline]", "values": [{"measurement": "RESPONSE (per patient)", "setting": "[1]; 0.025% topical doxycycline solution, one line per patient 1-11, diagnosis MGD, DTC", "result": "no effect"}, {"measurement": "patients with complete resolution of symptoms", "setting": "[1]; topical solution (doxycycline eye drops), 11 patients", "result": "more than 90%"}, {"measurement": "decrease of the level of pro-MMP9 activity in the supernatant", "setting": "pro-MMP9", "result": 70, "unit": "%"}]}
{"molecule": "CN(C)[C@@H]1C(O)=C(C(N)=O)C(=O)[C@@]2(O)C(O)=C3C(=O)c4c(O)cccc4[C@@](C)(O)[C@H]3[C@H](O)[C@@H]12", "note": "[oxytetracycline]", "values": [{"measurement": "patients with complete resolution of (irritation) symptoms", "setting": "[2]; topical ointment to ocular surface or eyelids, 11 patients", "result": 73, "unit": "%"}, {"measurement": "patients who experienced burning from the medication", "setting": "[2]; topical ointment, 11 patients, one of which ceased treatment", "result": "Three"}, {"measurement": "Clinical Response (per patient)", "setting": "[2]; topical oxytetracycline ointment, one line per patient 1-11", "result": "G (3×) and E (8×)"}, {"measurement": "Comments (tolerability, per patient)", "setting": "[2]; topical oxytetracycline ointment, per patient", "result": "mild burning"}]}
